Experiment [1] concerns the target Tyrosine-protein kinase CSK (Homo sapiens) (UniProt P41240). Put plainly: Selectivity interaction (KinomeScan (DiscoverX)) EUB0000607a CSK. The conditions noted are these: at 10 µM.
Experiment [2] has as its target Hepatocyte growth factor-like protein (Homo sapiens) (UniProt P26927). The conditions noted are these: at 10 µM.
Experiment [3] addresses RAC-beta serine/threonine-protein kinase (Homo sapiens) (UniProt P31751). In words: Selectivity interaction (KinomeScan (DiscoverX)) EUB0000666a AKT2. The conditions noted are these: at 10 µM.
The target in experiment [4] is T1, Mitogen-activated protein kinase kinase kinase 12 (Homo sapiens) (UniProt Q12852).
T1 sequence (whole entry): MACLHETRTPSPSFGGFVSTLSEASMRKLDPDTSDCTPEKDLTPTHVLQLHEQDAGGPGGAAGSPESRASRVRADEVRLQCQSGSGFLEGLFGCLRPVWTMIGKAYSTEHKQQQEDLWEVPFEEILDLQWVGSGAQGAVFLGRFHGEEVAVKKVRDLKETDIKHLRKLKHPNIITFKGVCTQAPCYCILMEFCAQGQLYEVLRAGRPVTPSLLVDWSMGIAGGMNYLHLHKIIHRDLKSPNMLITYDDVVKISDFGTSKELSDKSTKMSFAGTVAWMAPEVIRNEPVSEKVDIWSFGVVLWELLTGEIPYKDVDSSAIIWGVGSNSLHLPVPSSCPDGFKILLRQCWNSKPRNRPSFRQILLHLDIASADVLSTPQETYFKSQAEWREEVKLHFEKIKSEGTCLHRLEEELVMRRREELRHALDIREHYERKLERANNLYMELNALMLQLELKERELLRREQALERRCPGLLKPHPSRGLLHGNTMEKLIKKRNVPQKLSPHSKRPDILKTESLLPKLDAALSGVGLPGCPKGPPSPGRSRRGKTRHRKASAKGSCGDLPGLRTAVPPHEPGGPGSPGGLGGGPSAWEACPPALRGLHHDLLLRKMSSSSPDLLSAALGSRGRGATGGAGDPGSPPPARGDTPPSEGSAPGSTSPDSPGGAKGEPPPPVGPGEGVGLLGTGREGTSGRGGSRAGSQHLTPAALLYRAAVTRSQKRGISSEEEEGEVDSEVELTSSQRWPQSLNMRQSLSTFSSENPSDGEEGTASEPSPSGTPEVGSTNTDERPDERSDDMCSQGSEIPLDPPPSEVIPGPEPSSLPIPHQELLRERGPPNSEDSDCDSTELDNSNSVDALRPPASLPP
In words: Selectivity interaction (KinomeScan (DiscoverX)) EUB0000666a MAP3K12. Particulars: at 10 µM.

The target in experiment [5] is DNA (cytosine-5)-methyltransferase 1 (Homo sapiens) (UniProt P26358). Particulars: at 10 µM.
DNA (cytosine-5)-methyltransferase 1 (Homo sapiens), sequence (P26358 whole entry): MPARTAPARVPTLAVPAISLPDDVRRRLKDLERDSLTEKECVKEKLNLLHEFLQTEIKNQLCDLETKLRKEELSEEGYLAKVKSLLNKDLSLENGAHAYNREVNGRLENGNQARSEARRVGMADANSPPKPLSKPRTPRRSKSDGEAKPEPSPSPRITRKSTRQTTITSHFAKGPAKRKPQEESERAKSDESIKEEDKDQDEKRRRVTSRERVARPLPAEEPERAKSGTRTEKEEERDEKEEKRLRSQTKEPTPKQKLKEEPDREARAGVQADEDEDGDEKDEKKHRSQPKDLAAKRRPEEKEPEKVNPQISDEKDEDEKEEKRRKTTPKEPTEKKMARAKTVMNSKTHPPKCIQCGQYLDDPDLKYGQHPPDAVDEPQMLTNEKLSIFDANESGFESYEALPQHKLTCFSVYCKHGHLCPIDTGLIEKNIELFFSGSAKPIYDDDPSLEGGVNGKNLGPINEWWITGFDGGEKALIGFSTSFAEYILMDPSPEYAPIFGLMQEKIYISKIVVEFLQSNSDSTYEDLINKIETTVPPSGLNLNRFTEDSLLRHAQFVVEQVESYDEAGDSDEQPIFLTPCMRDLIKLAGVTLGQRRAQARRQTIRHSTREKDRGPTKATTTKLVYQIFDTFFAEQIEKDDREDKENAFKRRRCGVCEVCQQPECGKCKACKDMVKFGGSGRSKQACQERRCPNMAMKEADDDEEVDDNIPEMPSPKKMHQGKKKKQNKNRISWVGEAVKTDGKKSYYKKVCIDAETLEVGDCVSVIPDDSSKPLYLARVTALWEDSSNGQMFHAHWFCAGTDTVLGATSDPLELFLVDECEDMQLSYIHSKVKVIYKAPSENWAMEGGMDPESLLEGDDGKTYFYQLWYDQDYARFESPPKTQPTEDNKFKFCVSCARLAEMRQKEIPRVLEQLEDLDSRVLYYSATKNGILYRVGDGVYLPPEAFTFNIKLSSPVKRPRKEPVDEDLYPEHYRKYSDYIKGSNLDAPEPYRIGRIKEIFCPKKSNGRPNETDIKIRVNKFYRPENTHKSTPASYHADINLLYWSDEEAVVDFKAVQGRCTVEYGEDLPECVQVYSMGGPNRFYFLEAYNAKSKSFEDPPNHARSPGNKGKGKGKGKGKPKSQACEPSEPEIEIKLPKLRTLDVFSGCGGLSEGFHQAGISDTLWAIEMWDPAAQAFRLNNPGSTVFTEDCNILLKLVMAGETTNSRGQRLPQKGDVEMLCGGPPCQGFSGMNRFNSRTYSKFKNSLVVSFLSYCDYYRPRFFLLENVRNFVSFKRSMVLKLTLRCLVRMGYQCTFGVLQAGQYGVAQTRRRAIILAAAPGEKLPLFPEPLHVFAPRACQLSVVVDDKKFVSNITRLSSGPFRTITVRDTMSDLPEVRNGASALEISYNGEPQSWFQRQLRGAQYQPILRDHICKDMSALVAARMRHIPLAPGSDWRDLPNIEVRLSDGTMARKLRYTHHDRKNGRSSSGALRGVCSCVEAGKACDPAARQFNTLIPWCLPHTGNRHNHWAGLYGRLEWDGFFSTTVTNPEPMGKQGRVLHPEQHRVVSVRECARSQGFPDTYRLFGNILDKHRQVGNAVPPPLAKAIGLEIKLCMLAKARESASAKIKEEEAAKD
The target in experiment [6] is T2, Serine/threonine-protein kinase DCLK3 (Homo sapiens) (UniProt Q9C098).
T2 sequence (whole entry): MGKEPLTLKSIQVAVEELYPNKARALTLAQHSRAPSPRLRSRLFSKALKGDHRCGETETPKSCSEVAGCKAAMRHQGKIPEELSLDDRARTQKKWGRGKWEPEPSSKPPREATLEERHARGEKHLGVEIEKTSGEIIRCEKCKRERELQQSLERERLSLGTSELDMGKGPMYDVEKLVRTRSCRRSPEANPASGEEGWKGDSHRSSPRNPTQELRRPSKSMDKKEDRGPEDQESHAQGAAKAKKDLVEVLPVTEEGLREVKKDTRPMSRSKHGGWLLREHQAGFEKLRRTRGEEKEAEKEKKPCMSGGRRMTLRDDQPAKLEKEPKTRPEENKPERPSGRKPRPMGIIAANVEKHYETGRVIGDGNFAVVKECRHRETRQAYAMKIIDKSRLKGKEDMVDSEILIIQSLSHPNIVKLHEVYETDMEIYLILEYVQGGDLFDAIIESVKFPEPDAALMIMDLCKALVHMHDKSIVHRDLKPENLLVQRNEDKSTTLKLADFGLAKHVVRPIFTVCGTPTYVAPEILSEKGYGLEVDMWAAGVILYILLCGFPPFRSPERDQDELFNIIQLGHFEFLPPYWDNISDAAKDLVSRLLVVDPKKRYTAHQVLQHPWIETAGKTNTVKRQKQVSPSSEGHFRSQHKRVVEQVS
In words: Selectivity interaction (KinomeScan (DiscoverX)) EUB0001079a DCLK3. The conditions noted are these: at 1 µM.

Experiment [7] addresses MAP kinase-activated protein kinase 2 (Homo sapiens, UniProt P49137).
Experiment [8] addresses T3, Cyclin-dependent kinase-like 2 (Homo sapiens) (UniProt Q92772).
T3 sequence (whole entry): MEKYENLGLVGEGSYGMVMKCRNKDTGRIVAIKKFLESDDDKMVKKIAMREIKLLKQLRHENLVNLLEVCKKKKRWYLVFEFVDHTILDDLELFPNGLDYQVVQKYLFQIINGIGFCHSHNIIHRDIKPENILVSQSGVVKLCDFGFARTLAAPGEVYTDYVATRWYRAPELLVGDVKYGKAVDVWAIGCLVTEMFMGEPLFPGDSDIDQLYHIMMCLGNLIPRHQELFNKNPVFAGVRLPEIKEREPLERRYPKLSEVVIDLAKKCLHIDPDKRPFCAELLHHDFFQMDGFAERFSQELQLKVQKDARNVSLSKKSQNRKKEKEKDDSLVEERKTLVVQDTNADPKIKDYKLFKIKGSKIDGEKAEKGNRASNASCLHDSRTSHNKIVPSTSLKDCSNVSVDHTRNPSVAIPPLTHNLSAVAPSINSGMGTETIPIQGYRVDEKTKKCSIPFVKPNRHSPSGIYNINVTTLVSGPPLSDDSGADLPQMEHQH
Put plainly: Selectivity interaction (KinomeScan (DiscoverX)) EUB0001049a CDKL2. The conditions noted are these: at 1 µM.

In experiment [9] the target is D(4) dopamine receptor (Homo sapiens) (UniProt P21917). Put plainly: Selectivity interaction (Eurofins CEREP Diversity Profile (receptors and ion channels)) EUB0000279b DRD4. The conditions noted are these: at 10 µM.
D(4) dopamine receptor (Homo sapiens), sequence (P21917 whole entry): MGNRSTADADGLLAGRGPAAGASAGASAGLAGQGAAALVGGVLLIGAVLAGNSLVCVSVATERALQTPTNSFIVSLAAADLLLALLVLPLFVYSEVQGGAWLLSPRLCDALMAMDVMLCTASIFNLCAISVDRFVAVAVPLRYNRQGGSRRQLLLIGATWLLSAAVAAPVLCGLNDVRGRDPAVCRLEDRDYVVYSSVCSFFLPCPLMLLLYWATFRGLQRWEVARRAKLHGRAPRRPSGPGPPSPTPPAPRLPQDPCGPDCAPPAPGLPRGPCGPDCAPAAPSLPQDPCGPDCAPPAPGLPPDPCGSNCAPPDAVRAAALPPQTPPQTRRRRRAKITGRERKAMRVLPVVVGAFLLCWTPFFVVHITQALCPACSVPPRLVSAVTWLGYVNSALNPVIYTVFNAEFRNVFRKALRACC
Experiment [10] addresses Dual specificity protein kinase CLK4 (Homo sapiens, UniProt Q9HAZ1). In words: Selectivity interaction (Enzymatic assay) EUB0001550a CLK4.
The target of experiment [11] is Serine/threonine-protein kinase MRCK alpha (Homo sapiens) (UniProt Q5VT25). In words: Selectivity interaction (Upstate Kinase Profiler service (Millipore)) EUB0000056c CDC42BPA. Particulars: at 1 µM.

The structures appear in SMILES notation.

Tyrosine-protein kinase CSK (Homo sapiens), sequence (P41240 2-450 limits assumed): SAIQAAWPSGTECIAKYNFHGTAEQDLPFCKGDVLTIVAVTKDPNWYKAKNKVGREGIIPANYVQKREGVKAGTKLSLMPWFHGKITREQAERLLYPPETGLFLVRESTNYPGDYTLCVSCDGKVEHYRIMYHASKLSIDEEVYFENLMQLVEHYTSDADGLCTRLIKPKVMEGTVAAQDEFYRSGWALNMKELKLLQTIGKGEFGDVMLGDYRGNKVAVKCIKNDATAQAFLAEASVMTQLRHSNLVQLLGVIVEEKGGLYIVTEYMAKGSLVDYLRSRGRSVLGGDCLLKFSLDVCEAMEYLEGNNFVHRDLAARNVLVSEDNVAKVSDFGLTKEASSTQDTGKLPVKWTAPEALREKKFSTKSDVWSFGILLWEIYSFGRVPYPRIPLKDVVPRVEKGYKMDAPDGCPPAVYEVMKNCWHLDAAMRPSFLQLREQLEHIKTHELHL
RAC-beta serine/threonine-protein kinase (Homo sapiens), sequence (P31751 whole entry): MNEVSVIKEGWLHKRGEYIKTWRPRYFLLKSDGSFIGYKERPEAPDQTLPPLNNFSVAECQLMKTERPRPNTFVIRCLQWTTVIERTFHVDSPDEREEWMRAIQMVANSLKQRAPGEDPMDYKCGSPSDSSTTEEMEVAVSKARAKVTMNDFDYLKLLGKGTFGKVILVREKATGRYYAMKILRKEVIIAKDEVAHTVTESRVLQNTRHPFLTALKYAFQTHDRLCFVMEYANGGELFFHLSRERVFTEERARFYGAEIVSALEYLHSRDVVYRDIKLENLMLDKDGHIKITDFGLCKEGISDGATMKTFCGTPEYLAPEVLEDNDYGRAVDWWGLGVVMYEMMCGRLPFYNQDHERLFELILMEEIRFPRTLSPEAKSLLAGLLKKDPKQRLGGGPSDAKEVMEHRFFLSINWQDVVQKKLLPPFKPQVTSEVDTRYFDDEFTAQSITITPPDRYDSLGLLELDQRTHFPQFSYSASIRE
MAP kinase-activated protein kinase 2, sequence (P49137 whole entry): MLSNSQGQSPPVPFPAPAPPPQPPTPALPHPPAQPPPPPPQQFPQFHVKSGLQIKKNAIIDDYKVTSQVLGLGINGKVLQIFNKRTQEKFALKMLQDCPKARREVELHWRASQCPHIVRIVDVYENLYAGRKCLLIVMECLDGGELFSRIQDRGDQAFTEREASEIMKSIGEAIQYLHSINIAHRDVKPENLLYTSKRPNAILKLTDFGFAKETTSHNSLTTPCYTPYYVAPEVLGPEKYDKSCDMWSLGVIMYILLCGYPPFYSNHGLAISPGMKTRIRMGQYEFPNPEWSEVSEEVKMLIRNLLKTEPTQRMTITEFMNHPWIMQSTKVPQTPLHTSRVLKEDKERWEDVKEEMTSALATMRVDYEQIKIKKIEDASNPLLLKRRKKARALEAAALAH
Dual specificity protein kinase CLK4, sequence (Q9HAZ1 whole entry): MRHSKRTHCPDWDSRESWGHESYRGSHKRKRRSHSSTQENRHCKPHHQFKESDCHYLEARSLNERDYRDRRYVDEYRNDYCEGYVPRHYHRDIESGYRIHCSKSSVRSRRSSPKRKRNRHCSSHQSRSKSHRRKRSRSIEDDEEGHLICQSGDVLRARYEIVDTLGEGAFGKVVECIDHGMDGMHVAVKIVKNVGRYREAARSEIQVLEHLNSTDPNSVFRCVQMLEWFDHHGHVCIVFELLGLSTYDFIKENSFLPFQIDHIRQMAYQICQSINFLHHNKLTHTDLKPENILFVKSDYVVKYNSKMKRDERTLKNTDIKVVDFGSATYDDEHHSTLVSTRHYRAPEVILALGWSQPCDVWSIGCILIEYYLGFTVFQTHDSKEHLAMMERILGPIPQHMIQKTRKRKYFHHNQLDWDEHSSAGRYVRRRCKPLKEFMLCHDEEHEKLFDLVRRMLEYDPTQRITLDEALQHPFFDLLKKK

As to `CNC(=O)Nc1ccc(-c2nc(N3CC4CCC(C3)O4)c3cnn(C4CCC5(CC4)OCCO5)c3n2)cc1`, the % of control in [1] is 100%.

Regarding `Cc1cc([C@@H](C)Nc2ccccc2C(=O)O)c2nc(N3CCOCC3)cc(=O)n2c1` [AZD-6482], in [2], the % of control was 95%.

`O=C(NOC[C@H](O)CO)c1ccc(F)c(F)c1Nc1ccc(I)cc1F`: the % of control amounted to 100% in experiment [3] and 78% in experiment [4].

`CNCCN1CCC(c2cc(CN(C)C(=O)c3cccc(Oc4ccccc4)c3)ccn2)CC1`: in experiment [5], the % activity is greater than 90%.

As for `Nc1cnc(N2CCc3cc(S(=O)(=O)Nc4c(F)cc(Cl)cc4F)cc(N4CCCC4=O)c32)nc1` [TP-020n], the % of control in [6] came to 85%.

Usually IC50 stands for the concentration at which inhibition is half-maximal. A lower IC50 goes with higher potency. Turning to `CCc1cccc(CC)c1NC(=O)c1nn(C)c2c1CCc1cnc(Nc3ccc(C(=O)NC4CCN(C)CC4)cc3OC(F)(F)F)nc1-2`, in experiment [7], the IC50 is greater than 10000 nM.

Take `COc1cc(Nc2nc(C)cc(-c3cnn4nc(OC)ccc34)n2)cc(C(F)(F)F)c1`: the % of control in [8] came out at 100%.

Consider `CC(=O)c1cc(-c2ccccc2OCC2CC2)c2ncccn12`, for which, in [9], the % of control was found to be 103%.

In the case of `CN(C)CC#Cc1ccc2[nH]c3c(c2c1)-c1nc(N)ncc1CCC3`, in experiment [10], the IC50 amounted to 440 nM.

As for `Cc1ccc(-c2ccc3c(ccc4sc5c(c43)NC[C@@H](C)NC5=O)n2)cn1`, the % of inhibition in [11] is -21%.

Source of the values: ChEMBL document CHEMBL5465560, “Selectivity Literature for EUbOPEN Chemogenomic Library” (2024).
